# Patent US20120171123A1, “USES AND COMPOSITIONS FOR TREATMENT OF RHEUMATOID ARTHRITIS” (priority 2006, published 2012)
# Marks after values point to notes of the source that are not given here.
# Tests used:
# [1] = tested on: patients with active rheumatoid arthritis; details: Study A (N=2008), 12 weeks; cited from earlier work
# patients with active RA = assay: Study A in France: AIMS2-SF quality of life; format: in vivo, human; details: for AIMS2-SF Work component score: working patients only
# Source text: Efficacy of a treatment for rheumatoid arthritis can be determined by comparing AIMS2-SF scores given by subjects having rheumatoid arthritis. The AIMS2-SF is a shorter version of the AIMS2 (i.e., available in 2-page format) and has psychometric properties similar to those of the AIMS2 (see Guillemin et al. (1997) Arthritis Rheum. 40(7):1267).
# Unsatisfactory response or intolerance to at least one prior DMARD was required for enrollment in Study A. A 12-week study period was followed by an optional extension phase, with an efficacy assessment performed at Weeks 2, 6, 12, 20, and every eight weeks thereafter. Patients discontinued the study when they stopped receiving adalimumab or when […].
# The HAQ and the Arthritis Impact Measurement Scale Short Form (AIMS2-SF) are both extensively validated health-related quality-of-life outcome measures in RA (Guillemin et al. Arth Rheum 1997; 40(7):1267-1274). Both measures have been proven useful in cohort studies and clinical trials (Guillemin et al). The HAQ and the AIMS2-SF are effective in detecting both long-term and short-term health status changes (Guillemin et al). In France, Study A patients completed the French AIMS2-SF, a tool that measures disease impact on physical function and overall quality-of-life in five components. Study A began in France began in December 2002. Completion of the AIMS2-SF at Study Entry Visit 1, Week 12, and Week 28 (if patient participated in the continuation period) was a component added in March 2003 as a France-specific amendment to the study protocol. Because AIMS2-SF was introduced later into the study, the number of French patients answering the AIMS2-SF is smaller than the overall French Study A population
# A total of 266 patients out of 1,002 Study A patients in France completed the AIMS2-SF. AIMS2-SF responders recorded a significant improvement in quality-of-life.
# [2] = tested on: patients with moderate to severe rheumatoid arthritis; assay: Study C: EULAR response; format: in vivo, human; details: 12 weeks
# Description: The Canadian Adalimumab Clinical Trial (Study C) was an open-label, multi-center, Phase IIIb study conducted in Canada. […] Efficacy and safety were assessed at baseline, 4, 8, and 12 weeks. Efficacy assessments included tender joint count (TJC 0-28), swollen joint count (SJC 0-28), Disease Activity Score 28 (DAS28), Health Assessment Questionnaire (HAQ), and EULAR response. This was a preliminary analysis of 236 patients. The sample size for each outcome variable is based on the data available at the time of the analysis. The data from this preliminary analysis were compared with the Week 12 data from Study A (N=2008).
# [3] = Baseline to Week 12, mean of individual patient differences
substance,measurement,setting,value
"adalimumab: human anti-TNF mAb (HUMIRA, Abbott Laboratories), described in U.S. Pat. No. 6,090,382 as D2E7","HAQ (mean), change from baseline",[1],−0.49
same,AIMS2-SF Afect component score,patients with active RA; Baseline,4.7
same,AIMS2-SF Physical component score,patients with active RA; Baseline,3.9
same,AIMS2-SF Social component score,patients with active RA; Baseline,5.3
same,AIMS2-SF Symptom component score,patients with active RA; Baseline,6.7
same,"AIMS2-SF Physical component, % Change",patients with active RA; [3],−25.0^§ %
same,"AIMS2-SF Social component, % Change",patients with active RA; [3],1.6%
same,"AIMS2-SF Social component, Mean Change",patients with active RA; [3],−0.1
same,"AIMS2-SF Symptom component, % Change",patients with active RA; [3],−43.4^§ %
same,"AIMS2-SF Symptom component, Mean Change",patients with active RA; [3],−3.2^§
same,AIMS2-SF Work component score,patients with active RA; Baseline,4.2
same,AIMS2-SF Work component score,patients with active RA; Week 12,3.3
same,AIMS2-SF Afect component score,patients with active RA; week 12,3.6
same,AIMS2-SF Physical component score,patients with active RA; week 12,2.9
same,AIMS2-SF Social component score,patients with active RA; week 12,5.3
same,AIMS2-SF Symptom component score,patients with active RA; week 12,3.5
same,Good EULAR response,[2],18%
same,Moderate EULAR response,[2],79%
same,"EULAR response, % good","[2]; Study C, preliminary analysis",18 (121) %
same,"EULAR response, % moderate","[2]; Study C, preliminary analysis",78 (121) %
